Measured values as given in patent US9708336B2, “Metallo-beta-lactamase inhibitors” (priority 2014, dated 2017).
pIC50: −log10 of the molar value. Like-named read-outs stand apart in the source and are kept apart here.

Legend:
NDM-1 = NDM-1 (Klebsiella pneumoniae, UniProt C7C422); assay: biochemical; format: biochemical; conditions: NDM-1 enzyme, CCF2-FA fluorescence assay; read-out: NDM-1 IC50
[1] = test system: Escherichia coli expressing NDM-1 (CLB30016); assay: Antibiotic potentiation activity: synergistic concentration (MITC95) with imipenem, OD600 growth; format: cell-based; conditions: Escherichia coli expressing NDM-1 (CLB30016), 95% growth inhibition
Outline: (§1)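 Compound activity is tested with and without imipenem, which is present at 4 μg/ml (or 1 μg/ml) in the well. Bacteria in 1.1× CAMHB are incubated 22–24 h at 35 °C; absorbance gives the growth endpoint.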

[2] = test system: Serratia marcescens expressing IMP-1 (CL5741); assay: as above; format: cell-based; conditions: Serratia marcescens expressing IMP-1 (CL5741), 95% growth inhibition
Outline: as §1

[3] = test system: Klebsiella pneumoniae expressing VIM-1 (IHMA599644); assay: as above; format: cell-based; conditions: Klebsiella pneumoniae expressing VIM-1 (IHMA599644), 95% growth inhibition
Outline: as §1

IMP-1 = IMP-1 (Serratia marcescens, UniProt P52699); assay: biochemical; format: biochemical; conditions: IMP-1 enzyme, CCF2-FA fluorescence assay; read-out: IMP-1 IC50
IMP-1, sequence (P52699 whole entry, looked up): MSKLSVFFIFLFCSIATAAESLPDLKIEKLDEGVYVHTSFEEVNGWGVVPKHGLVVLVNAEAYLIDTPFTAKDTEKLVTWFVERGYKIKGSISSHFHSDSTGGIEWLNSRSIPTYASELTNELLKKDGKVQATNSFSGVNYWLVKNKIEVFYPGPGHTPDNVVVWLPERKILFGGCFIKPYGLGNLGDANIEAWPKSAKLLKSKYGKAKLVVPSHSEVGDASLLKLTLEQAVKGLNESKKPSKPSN

VIM-1 = VIM-1 (Pseudomonas aeruginosa (strain ATCC 15692 / DSM 22644 / CIP 104116 / JCM 14847 / LMG 12228 / 1C / PRS 101 / PAO1), UniProt A0A0F7KYQ8); assay: Enzyme activity: determination of IC50, fluorescence assay with CCF2-FA substrate (VIM-1); format: biochemical; conditions: CCF2-FA fluorescence assay
[4] = VIM-1 enzyme, read-out: VIM-1 IC50

NDM-1, sequence (C7C422 whole entry, looked up, species assumed): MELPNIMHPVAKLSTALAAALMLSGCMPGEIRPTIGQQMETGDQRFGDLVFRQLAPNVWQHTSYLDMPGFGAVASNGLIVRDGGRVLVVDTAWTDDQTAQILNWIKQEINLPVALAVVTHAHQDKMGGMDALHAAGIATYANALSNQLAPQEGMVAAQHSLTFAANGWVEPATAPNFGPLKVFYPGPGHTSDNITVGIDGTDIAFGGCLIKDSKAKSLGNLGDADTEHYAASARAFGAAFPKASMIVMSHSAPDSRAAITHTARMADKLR

For `CN1CCC(NCc2ccc(-c3cccc(S(N)(=O)=O)c3-c3nnn[nH]3)cc2)C1` (stereo not drawn) [Example 332, 4′-(((1-methylpyrrolidin-3-yl)amino)methyl)-2-(1H-tetrazol-5-yl)-[1,1′-biphenyl]-3-sulfonamide], the pIC50 (NDM-1) was 7.94, the “Escherichia coli MITC95” value [1] was 0.5859 µM and the “Serratia marcescens MITC95” value [2] was 3.125 µM. The “Klebsiella pneumoniae MITC95” value [3] was 100 µM, the pIC50 (IMP-1) was 6.72 and the pIC50 (VIM-1; [4]) was 6.26.
With `CNCc1ccc(-c2cccc(S(N)(=O)=O)c2-c2nnn[nH]2)cc1` [Example 334, 4′-((methylamino)methyl)-2-(1H-tetrazol-5-yl)-[1,1′-biphenyl]-3-sulfonamide] the pIC50 (NDM-1) was 7.98, the “Escherichia coli MITC95” value [1] was 0.3906 µM and the “Serratia marcescens MITC95” value [2] was 3.125 µM. For the same compound, the “Klebsiella pneumoniae MITC95” value [3] was 9.375 µM, the pIC50 (IMP-1) was 6.41 and the pIC50 (VIM-1; [4]) was 6.89.
For `CN(CCO)Cc1ccc(-c2cccc(S(N)(=O)=O)c2-c2nnn[nH]2)cc1` [Example 335, 4′-(((2-hydroxyethyl)(methyl)amino)methyl)-2-(1H-tetrazol-5-yl)-[1,1′-biphenyl]-3-sulfonamide], the pIC50 (NDM-1) was 7.82, the “Escherichia coli MITC95” value [1] was 0.3906 µM and the “Serratia marcescens MITC95” value [2] was 3.125 µM. For the same compound, the “Klebsiella pneumoniae MITC95” value [3] was 25 µM, the pIC50 (IMP-1) was 6.64 and the pIC50 (VIM-1; [4]) was 6.64.
In the case of `CC(C)(O)C1CN(Cc2ccc(-c3cccc(S(N)(=O)=O)c3-c3nnn[nH]3)cc2)C1` [Example 336, 4′-((3-(2-hydroxypropan-2-yl)azetidin-1-yl)methyl)-2-(1H-tetrazol-5-yl)-[1,1′-biphenyl]-3-sulfonamide], the pIC50 (NDM-1) was 7.47, the “Escherichia coli MITC95” value [1] was 0.7813 µM and the “Serratia marcescens MITC95” value [2] was 4.688 µM. For the same compound, the “Klebsiella pneumoniae MITC95” value [3] was 100 µM, the pIC50 (IMP-1) was 6.42 and the pIC50 (VIM-1; [4]) was 6.20.
`NC(=O)C1CCN(Cc2ccc(-c3cccc(S(N)(=O)=O)c3-c3nnn[nH]3)cc2)C1` (stereo not drawn) [Example 337, 1-((3′-sulfamoyl-2′-(1H-tetrazol-5-yl)-[1,1′-biphenyl]-4-yl)methyl)pyrrolidine-3-carboxamide] was tested, and the pIC50 (NDM-1) was 8.36, the “Escherichia coli MITC95” value [1] was 0.3906 µM and the “Serratia marcescens MITC95” value [2] was 2.344 µM. The “Klebsiella pneumoniae MITC95” value [3] was 75 µM, the pIC50 (IMP-1) was 7.16 and the pIC50 (VIM-1; [4]) was 6.49.
For `NS(=O)(=O)c1cccc(-c2ccc(CNCCc3nc[nH]n3)cc2)c1-c1nnn[nH]1` [Example 338, 4′-(((2-(1H-1,2,4-triazol-3-yl)ethyl)amino)methyl)-2-(1H-tetrazol-5-yl)-[1,1′-biphenyl]-3-sulfonamide], the pIC50 (NDM-1) was 8.34, the “Escherichia coli MITC95” value [1] was 0.5859 µM and the “Serratia marcescens MITC95” value [2] was 3.125 µM. For the same compound, the “Klebsiella pneumoniae MITC95” value [3] was 25 µM, the pIC50 (IMP-1) was 7.12 and the pIC50 (VIM-1; VIM-1 IC50, VIM-1 enzyme) was 6.82.
For `NS(=O)(=O)c1cccc(-c2ccc(CNC3CC(F)(F)C3)cc2)c1-c1nnn[nH]1` [Example 339, 4′-(((3,3-difluorocyclobutyl)amino)methyl)-2-(1H-tetrazol-5-yl)-[1,1′-biphenyl]-3-sulfonamide], the pIC50 (NDM-1) was 8.34, the “Escherichia coli MITC95” value [1] was 0.5859 µM and the “Serratia marcescens MITC95” value [2] was 1.563 µM. For the same compound, the “Klebsiella pneumoniae MITC95” value [3] was >200 µM, the pIC50 (IMP-1) was 7.37 and the pIC50 (VIM-1; [4]) was 6.21.
`NC(=O)CNCc1ccc(-c2cccc(S(N)(=O)=O)c2-c2nnn[nH]2)cc1` [Example 340, 2-(((3′-sulfamoyl-2′-(1H-tetrazol-5-yl)-[1,1′-biphenyl]-4-yl)methyl)amino)acetamide] was tested, and the pIC50 (NDM-1) was 8.29, the “Escherichia coli MITC95” value [1] was 0.3906 µM and the “Serratia marcescens MITC95” value [2] was 1.563 µM. The “Klebsiella pneumoniae MITC95” value [3] was 25 µM, the pIC50 (IMP-1) was 7.04 and the pIC50 (VIM-1; [4]) was 6.80.
For `NS(=O)(=O)c1cccc(-c2ccc(CN3CCOCC3)cc2)c1-c1nnn[nH]1` [Example 341, 4′-(morpholin-4-ylmethyl)-2-(1H-tetrazol-5-yl)biphenyl-3-sulfonamide], the pIC50 (NDM-1) was 8.53, the “Escherichia coli MITC95” value [1] was 0.7813 µM and the “Serratia marcescens MITC95” value [2] was 1.172 µM. For the same compound, the “Klebsiella pneumoniae MITC95” value [3] was >200 µM, the pIC50 (IMP-1) was 7.66 and the pIC50 (VIM-1; [4]) was 6.10.
With `NS(=O)(=O)c1cccc(-c2ccc(CN3CNC(=O)C3)cc2)c1-c1nnn[nH]1` [Example 342, 4′-[(4-oxoimidazolidin-1-yl)methyl]-2-(1H-tetrazol-5-yl)biphenyl-3-sulfonamide] the pIC50 (NDM-1) was 8.33, the “Escherichia coli MITC95” value [1] was 3.125 µM and the “Serratia marcescens MITC95” value [2] was 0.7813 µM. For the same compound, the “Klebsiella pneumoniae MITC95” value [3] was 25 µM, the pIC50 (IMP-1) was 7.34 and the pIC50 (VIM-1; [4]) was 7.09.
For `NS(=O)(=O)c1cccc(-c2ccc(CN3CCC(C(=O)O)C3)cc2)c1-c1nnn[nH]1` (stereo not drawn) [Example 343, 1-{[3′-sulfamoyl-2′-(1H-tetrazol-5-yl)biphenyl-4-yl]methyl}pyrrolidine-3-carboxylic acid], the pIC50 (NDM-1) was 7.61, the “Escherichia coli MITC95” value [1] was 1.563 µM and the “Serratia marcescens MITC95” value [2] was 9.375 µM. The “Klebsiella pneumoniae MITC95” value [3] was 100 µM, the pIC50 (IMP-1) was 6.43 and the pIC50 (VIM-1; [4]) was 5.93.
For `CC(CC(=O)O)NCc1ccc(-c2cccc(S(N)(=O)=O)c2-c2nnn[nH]2)cc1` (stereo not drawn) [Example 344, 3-({[3′-sulfamoyl-2′-(1H-tetrazol-5-yl)biphenyl-4-yl]methyl}amino)butanoic acid], the pIC50 (NDM-1) was 7.48, the “Escherichia coli MITC95” value [1] was 2.344 µM and the “Serratia marcescens MITC95” value [2] was 4.688 µM. For the same compound, the “Klebsiella pneumoniae MITC95” value [3] was 100 µM, the pIC50 (IMP-1) was 6.62 and the pIC50 (VIM-1; [4]) was 6.23.
With `CC1(C)CCN(Cc2ccc(-c3cccc(S(N)(=O)=O)c3-c3nnn[nH]3)cc2)C1` [Example 346, 4′-[(3,3-dimethylpyrrolidin-1-yl)methyl]-2-(1H-tetrazol-5-yl)biphenyl-3-sulfonamide] the pIC50 (NDM-1) was 7.93, the “Escherichia coli MITC95” value [1] was 1.563 µM and the “Serratia marcescens MITC95” value [2] was 2.344 µM. The “Klebsiella pneumoniae MITC95” value [3] was 150 µM, the pIC50 (IMP-1) was 6.63 and the pIC50 (VIM-1; [4]) was 6.39.
With `CN(C)[C@@H]1CCN(Cc2ccc(-c3cccc(S(N)(=O)=O)c3-c3nnn[nH]3)cc2)C1` [Example 347, 4′-{[(3R)-3-(dimethylamino)pyrrolidin-1-yl]methyl}-2-(1H-tetrazol-5-yl)biphenyl-3-sulfonamide] the pIC50 (NDM-1) was 7.91, the “Escherichia coli MITC95” value [1] was 2.344 µM and the “Serratia marcescens MITC95” value [2] was 3.125 µM. The “Klebsiella pneumoniae MITC95” value [3] was 200 µM, the pIC50 (IMP-1) was 6.73 and the pIC50 (VIM-1; [4]) was 6.07.
With `CN(C)CCCNCc1ccc(-c2cccc(S(N)(=O)=O)c2-c2nnn[nH]2)cc1` [Example 348, 4′-({[3-(dimethylamino)propyl]amino}methyl)-2-(1H-tetrazol-5-yl)biphenyl-3-sulfonamide] the pIC50 (NDM-1) was 7.59, the “Escherichia coli MITC95” value [1] was 1.172 µM and the “Serratia marcescens MITC95” value [2] was 9.375 µM. For the same compound, the “Klebsiella pneumoniae MITC95” value [3] was 75 µM, the pIC50 (IMP-1) was 5.88 and the pIC50 (VIM-1; [4]) was 6.07.
`CN1CCC(NCc2ccc(-c3cccc(S(N)(=O)=O)c3-c3nnn[nH]3)cc2)C1=O` (stereo not drawn) [Example 349, 4′-{[(1-methyl-2-oxopyrrolidin-3-yl)amino]methyl}-2-(1H-tetrazol-5-yl)biphenyl-3-sulfonamide] was tested, and the pIC50 (NDM-1) was 8.36, the “Escherichia coli MITC95” value [1] was 6.25 µM and the “Serratia marcescens MITC95” value [2] was 2.344 µM. For the same compound, the “Klebsiella pneumoniae MITC95” value [3] was >200 µM, the pIC50 (IMP-1) was 7.21 and the pIC50 (VIM-1; VIM-1 IC50, VIM-1 enzyme) was 6.20.
With `NS(=O)(=O)c1cccc(-c2ccc(CNCCn3ccnn3)cc2)c1-c1nnn[nH]1` [Example 350, 2-(1H-tetrazol-5-yl)-4′-({[2-(1H-1,2,3-triazol-1-yl)ethyl]amino}methyl)biphenyl-3-sulfonamide] the pIC50 (NDM-1) was 8.24, the “Escherichia coli MITC95” value [1] was 1.172 µM and the “Serratia marcescens MITC95” value [2] was 1.563 µM. For the same compound, the “Klebsiella pneumoniae MITC95” value [3] was >200 µM, the pIC50 (IMP-1) was 7.40 and the pIC50 (VIM-1; [4]) was 6.61.
For `CC(O)C1CCN(Cc2ccc(-c3cccc(S(N)(=O)=O)c3-c3nnn[nH]3)cc2)C1` (stereo not drawn) [Example 351, 4′-{[3-(1-hydroxyethyl)pyrrolidin-1-yl]methyl}-2-(1H-tetrazol-5-yl)biphenyl-3-sulfonamide], the pIC50 (NDM-1) was 7.74, the “Escherichia coli MITC95” value [1] was 1.563 µM and the “Serratia marcescens MITC95” value [2] was 3.125 µM. For the same compound, the “Klebsiella pneumoniae MITC95” value [3] was 150 µM, the pIC50 (IMP-1) was 6.48 and the pIC50 (VIM-1; [4]) was 6.38.
`CCN1CCC(NCc2ccc(-c3cccc(S(N)(=O)=O)c3-c3nnn[nH]3)cc2)CC1` [Example 352, 4′-{[(1-ethylpiperidin-4-yl)amino]methyl}-2-(1H-tetrazol-5-yl)biphenyl-3-sulfonamide] was tested, and the pIC50 (NDM-1) was 7.42, the “Escherichia coli MITC95” value [1] was 1.563 µM and the “Serratia marcescens MITC95” value [2] was 6.25 µM. The “Klebsiella pneumoniae MITC95” value [3] was >200 µM, the pIC50 (IMP-1) was 6.26 and the pIC50 (VIM-1; [4]) was 6.04.
`CC(NCc1ccc(-c2cccc(S(N)(=O)=O)c2-c2nnn[nH]2)cc1)c1nn[nH]n1` (stereo not drawn) [Example 353, 2-(1H-tetrazol-5-yl)-4′-({[1-(2H-tetrazol-5-yl)ethyl]amino}methyl)biphenyl-3-sulfonamide] was tested, and the pIC50 (NDM-1) was 8.39, the “Escherichia coli MITC95” value [1] was 2.344 µM and the “Serratia marcescens MITC95” value [2] was 1.172 µM. For the same compound, the “Klebsiella pneumoniae MITC95” value [3] was 100 µM, the pIC50 (IMP-1) was 7.55 and the pIC50 (VIM-1; VIM-1 IC50, VIM-1 enzyme) was 6.16.
`Cc1cc(CNCc2ccc(-c3cccc(S(N)(=O)=O)c3-c3nnn[nH]3)cc2)n[nH]1` [Example 354, 4′-({[(5-methyl-1H-pyrazol-3-yl)methyl]amino}methyl)-2-(1H-tetrazol-5-yl)biphenyl-3-sulfonamide] was tested, and the pIC50 (NDM-1) was 8.14, the “Escherichia coli MITC95” value [1] was 2.344 µM and the “Serratia marcescens MITC95” value [2] was 2.344 µM. The “Klebsiella pneumoniae MITC95” value [3] was 200 µM, the pIC50 (IMP-1) was 7.79 and the pIC50 (VIM-1; [4]) was 6.49.
